Earlier results as cited in US12100485B2, “Machine learning and molecular simulation based methods for enhancing binding and activity prediction” (The Board of Trustees of the Leland Stanford Junior …, priority 2018, dated 2024).

Test system: μOR
Details: not given

Question: With CO[C@@]12CCC(=O)[C@@H]3Oc4c(O)ccc5c4[C@@]31CCN(C)[C@@H]2C5 [14-methoxydihydromorphinone] as the compound, how does the Action read?
Answer: The Action was “agonist”.

Question: For CO[C@@]12CCC(=O)[C@]3(C)Oc4c(O)ccc5c4[C@@]31CCN(C)[C@@H]2C5 [14-methoxymetopon], which Action is on record?
Answer: Its Action is “agonist”.

Question: With CCC(OC(C)=O)C(CC(C)N(C)C)(c1ccccc1)c1ccccc1 (stereo not drawn) [acetylmethadol] as the compound, how does the Action read?
Answer: The Action was “agonist”.

Question: For C=CCC1CN(C)CCC1(OC(=O)CC)c1ccccc1 (stereo not drawn) [allylprodine], which Action is on record?
Answer: Its Action is “agonist”.

Question: For CC[C@@H](OC(C)=O)C(C[C@@H](C)N(C)C)(c1ccccc1)c1ccccc1 [alphacetylmethadol], which Action is on record?
Answer: Its Action is “agonist”.

Question: For CC[C@@H](O)C(C[C@@H](C)N(C)C)(c1ccccc1)c1ccccc1 [alphamethadol], which Action is on record?
Answer: Its Action is “agonist”.

Question: Which Action does the source give for CCOC(=O)C1(c2ccccc2)CCN(CCc2ccc(N)cc2)CC1 [anileridine] here?
Answer: The Action was “agonist”.

Question: Which Action does the source give for NC(=O)c1cccc([C@H]2C[C@H]3CC[C@@H](C2)N3CCN(CC2CCCCC2)C(=O)[C@@H](O)CO)c1 [axelopran] here?
Answer: The Action was “antagonist”.

Question: Which Action does the source give for CCOC(=O)C1(c2ccccc2)CCN(CCOCc2ccccc2)CC1 [benzethidine] here?
Answer: Its Action is “agonist”.

Question: For COC(=O)/C=C/C(=O)N[C@@H]1CC[C@@]2(O)[C@H]3Cc4ccc(O)c5c4[C@@]2(CCN3CC2CC2)[C@H]1O5 [beta-funaltrexamine], which Action is on record?
Answer: Its Action is “antagonist”.

Question: With CC[C@H](OC(C)=O)C(C[C@@H](C)N(C)C)(c1ccccc1)c1ccccc1 [betacetylmethadol] as the compound, how does the Action read?
Answer: The Action was “agonist”.

Question: With CC[C@H](O)C(C[C@@H](C)N(C)C)(c1ccccc1)c1ccccc1 [betamethadol] as the compound, how does the Action read?
Answer: The Action was “agonist”.

Question: Which Action does the source give for Oc1cccc([C@@]23CCCC[C@H]2CN(CC2CC2)CC3)c1 [ciprefadol] here?
Answer: Its Action is “agonist”.

Question: With O=C(/C=C/c1ccc(Cl)cc1)N[C@@]12CCC(=O)[C@@H]3Oc4c(O)ccc5c4[C@@]31CCN(CC1CC1)[C@@H]2C5 [clocinnamox] as the compound, how does the Action read?
Answer: Its Action is “antagonist”.

Question: With Oc1ccc2c3c1O[C@H]1[C@H](F)CC[C@@]4(O)[C@@H](C2)N(CC2CC2)CC[C@]314 [cyclofoxy] as the compound, how does the Action read?
Answer: The Action was “antagonist”.

Question: Which Action does the source give for COc1cccc2c1[C@]13CCN(CC4CC4)[C@H](C2)[C@]1(OC)CCC(=O)C3 [cyprodime] here?
Answer: Its Action is “antagonist”.

Question: With CC(C)C[C@@H](NC(=O)[C@H](Cc1ccccc1)NC(=O)CNC(=O)[C@@H](C)NC(=O)[C@@H](N)Cc1ccc(O)cc1)C(=O)O [dadle] as the compound, how does the Action read?
Answer: Its Action is “agonist”.

Question: For C[C@@H](NC(=O)[C@@H](N)Cc1ccc(O)cc1)C(=O)NCC(=O)N(C)[C@@H](Cc1ccccc1)C(=O)NCCO [damgo], which Action is on record?
Answer: Its Action is “agonist”.

Question: Which Action does the source give for CN1CC[C@]23c4c5ccc(O)c4O[C@H]2CCC[C@H]3[C@H]1C5 [desomorphine] here?
Answer: The Action was “agonist”.

Question: Which Action does the source give for C[C@H](CN1CCOCC1)C(C(=O)N1CCCC1)(c1ccccc1)c1ccccc1 [dextromoramide] here?
Answer: The Action was “agonist”.

Question: Which Action does the source give for CCC(=O)O[C@](Cc1ccccc1)(c1ccccc1)[C@H](C)CN(C)C [dextropropoxyphene] here?
Answer: The Action was “agonist”.

Question: For N#CC(CCN1CCC(C(=O)O)(c2ccccc2)CC1)(c1ccccc1)c1ccccc1 [difenoxin], which Action is on record?
Answer: The Action was “agonist”.

Question: For CN1CC[C@]23c4c5ccc(O)c4O[C@H]2[C@@H](O)CC[C@H]3[C@H]1C5 [dihydromorphine], which Action is on record?
Answer: Its Action is “agonist”.

Question: With CCOC(C(=O)OCCN(C)C)(c1ccccc1)c1ccccc1 [dimenoxadol] as the compound, how does the Action read?
Answer: The Action was “agonist”.

Question: With CCC(O)C(CC(C)N(C)C)(c1ccccc1)c1ccccc1 (stereo not drawn) [dimepheptanol] as the compound, how does the Action read?
Answer: The Action was “agonist”.

Question: With CCOC(=O)C(CCN1CCOCC1)(c1ccccc1)c1ccccc1 [dioxaphetyl_butyrate] as the compound, how does the Action read?
Answer: The Action was “agonist”.

Question: Which Action does the source give for CCOC(=O)C1(c2ccccc2)CCN(CCC(C#N)(c2ccccc2)c2ccccc2)CC1 [diphenoxylate] here?
Answer: The Action was “agonist”.

Question: Which Action does the source give for CCC(=O)C(CC(C)N1CCCCC1)(c1ccccc1)c1ccccc1 (stereo not drawn) [dipipanone] here?
Answer: Its Action is “agonist”.

Question: Which Action does the source give for COc1ccc(CN(C(=O)[C@@H](N)Cc2c(C)cc(C(N)=O)cc2C)[C@@H](C)c2ncc(-c3ccccc3)[nH]2)cc1C(=O)O [eluxadoline] here?
Answer: The Action was “agonist”.

Question: Which Action does the source give for CN1CC[C@]2(C)C[C@@H](Cc3ccc(O)cc32)C1 [eptazocine] here?
Answer: The Action was “antagonist”.

Question: For CCOC(=O)C1(c2ccccc2)CCCN(C)CC1 (stereo not drawn) [ethoheptazine], which Action is on record?
Answer: Its Action is “agonist”.

Question: Which Action does the source give for CCOC(=O)C1(c2ccccc2)CCN(CCOCCO)CC1 [etoxeridine] here?
Answer: Its Action is “agonist”.

Question: Which Action does the source give for CCOC(=O)C1(c2ccccc2)CCN(CCOCC2CCCO2)CC1 (stereo not drawn) [furethidine] here?
Answer: The Action was “agonist”.

Question: Which Action does the source give for CO[C@H]1C=C[C@H]2[C@H]3Cc4ccc(O)c5c4[C@@]2(CCN3C)[C@H]1O5 [heterocodeine] here?
Answer: Its Action is “agonist”.

Question: For CN1CC[C@]23c4c5ccc(O)c4O[C@H]2[C@@H](O)CC[C@@]3(O)[C@H]1C5 [hydromorphinol], which Action is on record?
Answer: The Action was “agonist”.

Question: Which Action does the source give for CCOC(=O)C1(c2cccc(O)c2)CCN(C)CC1 [hydroxypethidine] here?
Answer: Its Action is “agonist”.

Question: With O=C(N[C@@H]1CC[C@@]2(O)[C@H]3Cc4ccc(O)c5c4[C@@]2(CCN3CC2CC2)[C@H]1O5)c1cccc(I)c1 [ibntxa] as the compound, how does the Action read?
Answer: Its Action is “agonist”.

Question: Which Action does the source give for CCC(=O)C(c1ccccc1)(c1ccccc1)C(C)CN(C)C (stereo not drawn) [isomethadone] here?
Answer: Its Action is “agonist”.

Question: Which Action does the source give for CNC1(c2ccccc2Cl)CCCCC1=O (stereo not drawn) [ketamine] here?
Answer: Its Action is “agonist”.

Question: With CCC(=O)C1(c2cccc(O)c2)CCN(C)CC1 [ketobemidone] as the compound, how does the Action read?
Answer: Its Action is “agonist”.

Question: With CN(C)[C@H](Cc1ccccc1)c1ccccc1 [lefetamine] as the compound, how does the Action read?
Answer: The Action was “agonist”.

Question: Which Action does the source give for CC[C@H](OC(C)=O)C(C[C@H](C)N(C)C)(c1ccccc1)c1ccccc1 [levacetylmethadol] here?
Answer: Its Action is “agonist”.

Question: With CCC(=O)C(C[C@@H](C)N(C)C)(c1ccccc1)c1ccccc1 [levomethadone] as the compound, how does the Action read?
Answer: The Action was “agonist”.

Question: For O=C(CN1CC[C@]23CCCC[C@H]2[C@H]1Cc1ccc(O)cc13)c1ccccc1 [levophenacylmorphan], which Action is on record?
Answer: The Action was “agonist”.

Question: For CN1CC[C@]23CCCC[C@H]2[C@H]1Cc1ccc(O)cc13 [levorphanol], which Action is on record?
Answer: The Action was “agonist”.

Question: With CN(C)C(=O)C(CCN1CCC(O)(c2ccc(Cl)cc2)CC1)(c1ccccc1)c1ccccc1 [loperamide] as the compound, how does the Action read?
Answer: The Action was “agonist”.

Question: Which Action does the source give for C[C@H]1CN(CC[C@H](O)C2CCCCC2)CC[C@@]1(C)c1cccc(O)c1 [ly-255582] here?
Answer: Its Action is “antagonist”.

Question: Which Action does the source give for CCC(=O)O[C@]1(c2ccccc2)CCN(C)C[C@@H]1CC [meprodine] here?
Answer: Its Action is “agonist”.

Question: For CCC(=O)C(CC(C)N(C)C)(c1ccccc1)c1ccccc1 (stereo not drawn) [methadone], which Action is on record?
Answer: Its Action is “agonist”.

Question: Which Action does the source give for Cc1ccc(/C=C/C(=O)N[C@@]23CCC(=O)[C@@H]4Oc5c(O)ccc6c5[C@@]42CCN(CC2CC2)[C@@H]3C6)cc1 [methocinnamox] here?
Answer: The Action was “antagonist”.

Question: For CC1=CC[C@H]2[C@H]3Cc4ccc(O)c5c4[C@@]2(CCN3C)[C@H]1O5 [methyldesorphine], which Action is on record?
Answer: The Action was “agonist”.

Question: For COc1ccc2c3c1O[C@H]1[C@@H](O)CC[C@H]4[C@@H](C2)N(C)CC[C@@]341 [methyldihydromorphine], which Action is on record?
Answer: The Action was “agonist”.

Question: With C[N@+]1(CC2CC2)CC[C@]23CC(=O)CC[C@@]2(O)[C@H]1Cc1ccc(C(N)=O)c(O)c13 [methylsamidorphan] as the compound, how does the Action read?
Answer: Its Action is “antagonist”.

Question: For CN1CC[C@]23c4c5ccc(O)c4O[C@@]2(C)C(=O)CC[C@H]3[C@H]1C5 [metopon], which Action is on record?
Answer: Its Action is “agonist”.

Question: Which Action does the source give for CC[C@@H]1CN2CC[C@]3(Nc4cccc(OC)c4C3=O)[C@@H]2C[C@@H]1/C(=C\OC)C(=O)OC [mitragynine_pseudoindoxyl] here?
Answer: Its Action is “agonist”.

Question: With CCOC(=O)C1(c2ccccc2)CCN(CCN2CCOCC2)CC1 [morpheridine] as the compound, how does the Action read?
Answer: The Action was “agonist”.

Question: Which Action does the source give for CN1CC[C@]23c4c5ccc(O)c4O[C@H]2[C@@H](O[C@@H]2O[C@H](C(=O)O)[C@@H](O)[C@H](O)[C@H]2O)C=C[C@H]3[C@H]1C5 [morphine-6-glucuronide] here?
Answer: The Action was “agonist”.

Question: With CN1CC[C@]23c4c5ccc(O)c4O[C@H]2[C@@H](O)C=C[C@H]3[C@H]1C5 [morphine] as the compound, how does the Action read?
Answer: The Action was “agonist”.

Question: With CN1CC[C@]23c4c5ccc(O)c4O[C@H]2C(=O)C=C[C@H]3[C@H]1C5 [morphinone] as the compound, how does the Action read?
Answer: The Action was “agonist”.

Question: For Oc1ccc2c3c1O[C@H]1[C@@H](O)C=C[C@H]4[C@@H](C2)N(CCc2ccccc2)CC[C@@]341 [n-phenethylnormorphine], which Action is on record?
Answer: The Action was “agonist”.

Question: For C=CCN1CC[C@]23c4c5ccc(O)c4O[C@H]2/C(=N\N)CC[C@@]3(O)[C@H]1C5 [naloxazone], which Action is on record?
Answer: Its Action is “Antagonists”.

Question: With C=CCN1CC[C@]23c4c5ccc(O)c4O[C@H]2[C@@H](OCCOCCOCCOCCOCCOCCOCCOC)CC[C@@]3(O)[C@H]1C5 [naloxegol] as the compound, how does the Action read?
Answer: Its Action is “Antagonists”.

Question: With C=CCN1CC[C@]23c4c5ccc(O)c4O[C@H]2/C(=N/N=C2\CC[C@@]4(O)[C@H]6Cc7ccc(O)c8c7[C@@]4(CCN6CC=C)[C@H]2O8)CC[C@@]3(O)[C@H]1C5 [naloxonazine] as the compound, how does the Action read?
Answer: Its Action is “Antagonists”.

Question: Which Action does the source give for N/N=C1/CC[C@@]2(O)[C@H]3Cc4ccc(O)c5c4[C@@]2(CCN3CC2CC2)[C@H]1O5 [naltrexazone] here?
Answer: The Action was “Antagonists”.

Question: Which Action does the source give for CCC(OC(C)=O)C(CC(C)NC)(c1ccccc1)c1ccccc1 (stereo not drawn) [noracymethadol] here?
Answer: The Action was “agonist”.

Question: With COc1ccsc1CNCC[C@@]1(c2ccccn2)CCOC2(CCCC2)C1 [oliceridine] as the compound, how does the Action read?
Answer: The Action was “agonist”.

Question: With Oc1ccc2c(c1)[C@@]13CCCC[C@@]1(O)[C@@H](C2)N(CC1CC1)CC3 [oxilorphan] as the compound, how does the Action read?
Answer: Its Action is “Antagonists”.

Question: With CCOC(=O)C1(c2ccccc2)CCN(CC(O)c2ccccc2)CC1 (stereo not drawn) [oxpheneridine] as the compound, how does the Action read?
Answer: Its Action is “agonist”.

Question: For CN1CC[C@]23c4c5ccc(O)c4O[C@H]2/C(=N\N)CC[C@@]3(O)[C@H]1C5 [oxymorphazone], which Action is on record?
Answer: Its Action is “agonist”.

Same assay, conditions: known pharmacology, training dataset

Question: For C[C@H]1CN(C[C@H](Cc2ccccc2)C(=O)NCC(=O)O)CC[C@@]1(C)c1cccc(O)c1 [alvimopan], which Action is on record?
Answer: Its Action is “antagonist”.

Question: Which Action does the source give for CN(C)CC(C)(C)C(=O)c1ccccc1 [dimethylaminopivalophenone] here?
Answer: The Action was “agonist”.

Question: For C[N@+]1(CC2CC2)CC[C@]23c4c5ccc(O)c4O[C@H]2C(=O)CC[C@@]3(O)[C@H]1C5 [methylnaltrexone], which Action is on record?
Answer: The Action was “antagonist”.

Question: With C=C1CC[C@@]2(O)[C@H]3Cc4ccc(O)c5c4[C@@]2(CCN3CC2CC2)[C@H]1O5 [nalmefene] as the compound, how does the Action read?
Answer: The Action was “Antagonists”.

Question: Which Action does the source give for C=CCN1CC[C@]23c4c5ccc(O)c4O[C@H]2C(=O)CC[C@@]3(O)[C@H]1C5 [naloxone] here?
Answer: Its Action is “Antagonists”.

Question: With O=C1CC[C@@]2(O)[C@H]3Cc4ccc(O)c5c4[C@@]2(CCN3CC2CC2)[C@H]1O5 [naltrexone] as the compound, how does the Action read?
Answer: The Action was “Antagonists”.
